pEC50: −log10 of the molar value. Read-outs that look alike come from different tables or passages of the source.
How the values were obtained:
human RORγ = target: T1, human RORγ (Homo sapiens, UniProt P51449); assay: In vitro assay of inhibitory effect against RORγ transcriptional activity (GAL4-hRORγ LBD luciferase reporter gene assay in CHO cells); type: cell-based; settings: for hRORγ luciferase activity, %-of-control: vehicle-control 0.2% DMSO alone = 100%
T1 construct: human RORγ, from Ser253 to Lys518; expressed in transfected cells; host or cells: CHO cells (Chinese hamster ovary), transient co-transfection with pG5-Luc
T1 sequence (P51449 253-518): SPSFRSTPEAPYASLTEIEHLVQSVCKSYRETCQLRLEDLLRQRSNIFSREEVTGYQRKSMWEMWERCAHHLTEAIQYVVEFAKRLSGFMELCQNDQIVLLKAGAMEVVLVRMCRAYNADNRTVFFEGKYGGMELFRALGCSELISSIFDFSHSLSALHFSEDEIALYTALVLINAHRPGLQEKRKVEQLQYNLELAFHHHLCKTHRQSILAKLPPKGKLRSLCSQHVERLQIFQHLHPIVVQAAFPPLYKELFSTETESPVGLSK
Experimental: (§1) In Vitro Assay of Inhibitory Effect Against RORγ Transcriptional Activity
(§2) Inhibitory effect of a test article on transcriptional activity of RORγ was measured by means of the following reporter gene assay.
(§3) cDNA encoding human and mouse RORγ ligand binding domain (LBD) were obtained based on the sequences of human RORγ (Genebank registered number NM_005060.3) and mouse RORγ (Genebank registered number NM_011281.2) (LBD sequence: human RORγ, from Ser253 to Lys518; mouse RORγ, from Ile251 to Lys516).
(§4) The LBD cDNA of human or mouse RORγ was inserted into pFA-CMV vector (Strategene), which expresses GAL4-DNA binding domain fusion protein. The resulting plasmids are hereinafter referred to as GAL4-hRORγ plasmid and GAL4-mRORγ plasmid, respectively.
(§5) GAL4-hRORγ plasmid or GAL4-mRORγ plasmid was transiently co-transfected into Chinese hamster ovary cells (CHO cells) with pG5-Luc (Promega), a reporter plasmid expressing firefly luciferase depending on GAL4.
(§6) TransIT (Registered trademark) CHO transfection reagent (Mirus) was used to co-transfect GAL4-hRORγ plasmid or GAL4-mRORγ plasmid into CHO cells with pG5-Luc plasmid. One day before the assay, CHO cells were suspended in HAM F-12 Nutrient medium containing 10 v/v % fetal bovine serum and seeded at 6×10^6 cells per 175 cm^2 cell culture flask. Fifty four micro litters of TransIT (Registered trademark) CHO reagent was added into a 15 ml tube containing 1.16 mL of HAM F-12 Nutrient medium without fetal bovine serum, and mixed and incubated at room temperature for 10 min. Thirty six micro litters of plasmid solution containing the GAL4-hRORγ plasmid (400 ng), pG5-Luc plasmid (9000 ng) and pcDNA3 plasmid (8600 ng) were added into the tube and mixed gently. In case of mouse assay, a plasmid solution containing the GAL4-mRORγ plasmid (250 ng), pG5-Luc plasmid (9000 ng) and pcDNA3 plasmid (8750 ng) was added, instead. The mixture was incubated at room temperature for 10 min. Nine micro litters of CHO Mojo Reagent were then added into each tube and mixed gently. The mixture was incubated at room temperature for 10 min. The resultant transfection reagent was applied to the cell culture. After incubation at 37° C., 5% CO2 for 4 hours, the plasmid-transfected CHO cells were harvested with a trypsin treatment. The collected cells were resuspended in HAM F-12 Nutrient medium supplemented with 10 v/v % fetal bovine serum and plated into a 384-well-white plate at 8,000 cells/50 μL/well. The plate was incubated at room temperature for 1 hour and then further incubated at 37° C., 5% CO2 for 3 hours. The test articles were dissolved in dimethylsulfoxide (DMSO) to obtain a concentration of 10 mM. The resulting solution was diluted with a medium just before use and added to the cells in the plate to prepare 8 different concentrations of the test article. The final concentration of DMSO was 0.2 v/v %. After the addition of the test articles, the cells were incubated at 37° C., 5% CO2 for 2 days.
(§7) RORγ transcriptional activity was detected as the intracellular luciferase activity using SteadyLite HTS Reporter Gene Assay System (Perkin Elmer). StedyLite Reagent was diluted five-fold into a solution containing Extension reagent (10 mM Tricine, 0.2% w/v BSA, 0.02% v/v Tween-20) to obtain the luciferase substrate solution. After the measurement of the cell viability using Resazurin, the culture media in the plate were removed, and then the luciferase substrate solution was added into each well. After the incubation at room temperature for 10 minutes, luminescence of each well was measured by a microplate reader. The luciferase activity derived from the luminescence count in the vehicle-control well treated with 0.2% DMSO alone was defined as 100%, and the luciferase activity in the test article was calculated as a percentage (%-of-control) based on the value of the vehicle-control. EC50 value of test article was calculated by curve fitting with GraphPad Prism. […]

mouse RORγ = target: T2, mouse RORγ (Mus musculus, UniProt P51450); assay: In vitro assay of inhibitory effect against RORγ transcriptional activity (GAL4-mRORγ LBD luciferase reporter gene assay in CHO cells); type: cell-based; settings: for mRORγ luciferase activity, %-of-control: vehicle-control 0.2% DMSO alone = 100%
T2 construct: mouse RORγ, from Ile251 to Lys516; expressed in transfected cells; host or cells: CHO cells (Chinese hamster ovary), transient co-transfection with pG5-Luc
T2 sequence (P51450 251-516): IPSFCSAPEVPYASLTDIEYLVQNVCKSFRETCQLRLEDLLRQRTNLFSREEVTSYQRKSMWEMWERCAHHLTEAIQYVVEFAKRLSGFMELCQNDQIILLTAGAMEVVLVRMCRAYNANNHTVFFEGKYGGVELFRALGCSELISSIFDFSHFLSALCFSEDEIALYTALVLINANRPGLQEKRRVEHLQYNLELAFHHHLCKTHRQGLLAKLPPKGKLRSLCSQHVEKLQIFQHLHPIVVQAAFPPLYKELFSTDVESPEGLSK
Experimental: as §1, §2, §3, §4, §5, §6, §7

[1] = GAL4-hRORγ LBD / pG5-Luc in CHO cells, 2 days incubation
[2] = value in parentheses beside the > EC50 bound
[3] = GAL4-mRORγ LBD / pG5-Luc in CHO cells, 2 days incubation
[4] = GAL4-hRORγ LBD luciferase reporter, CHO cells, read-out: LUC EC50 hRORγ
[5] = GAL4-mRORγ LBD luciferase reporter, CHO cells, read-out: LUC EC50 mRORγ
[6] = value in parentheses beside the EC50 bound

Row | SMILES | pEC50 (human RORγ; [1]) | pEC50 (mouse RORγ; [3]) | pEC50 (human RORγ; [4]) | pEC50 (mouse RORγ; [5]) | further results
1 | CC(C)C1=CN(CCC(=O)O)C(=O)N[C@@]1(C)c1ccc(CCC2CCCCC2)c(Cl)c1 [Example 139] | < 6.29 | 7.57 | – | – | hRORγ luciferase activity, %-of-control (human RORγ; [2]): (110%)
2 | CCCCc1ccc(C2(C)NC(=O)N(CCCC(=O)O)C=C2C(C)C)cc1Cl (racemic) [Example 28] | 6.73 | 7.09 | – | – | –
3 | CC(C)CCc1ccc(C2(C)NC(=O)N(CCCC(=O)O)C=C2C(C)C)cc1Cl (racemic) [Example 27] | 7.60 | 7.80 | – | – | –
4 | CC(C)C1=CN(CCC(=O)O)C(=O)N[C@@]1(C)c1ccc(C#CC(C)(C)C)c(Cl)c1 [Example 317] | – | – | 7.40 | 7.62 | –
5 | CC(C)C1=CN(CCC(=O)O)C(=O)N[C@@]1(C)c1ccc(CCC2CCCC2)c(Cl)c1 [Example 120] | 7.21 | 7.85 | – | – | –
6 | CC(C)C1=CN(CCC(=O)O)C(=O)N[C@]1(C)c1ccc(C2=CCCCC2)c(Cl)c1 [Example 133] | < 5.10 | < 5.10 | – | – | hRORγ luciferase activity, %-of-control (human RORγ; [2]): (71%); mRORγ luciferase activity, %-of-control (mouse RORγ; [2]): (88%)
7 | CC(C)C1=CN(CCC(=O)O)C(=O)N[C@@]1(C)c1ccc(CCC(C)(C)C(F)(F)F)c(Cl)c1 [Example 185] | 8.05 | 7.85 | – | – | –
8 | CC(C)C1=CN(CC(=O)O)C(=O)N[C@]1(C)c1ccc(CCC(C)(C)C)c(Cl)c1 [Example 93] | 5.67 | 5.59 | – | – | –
9 | COC1CC(C2=CN(c3ccc(C(=O)O)cc3)C(=O)N[C@@]2(C)c2ccc(CCC(C)(C)C)c(Cl)c2)C1 (single isomer, unassigned) [Example 277] | – | – | 7.64 | 7.42 | –
10 | CC(C)C1=CN([C@H]2C[C@H](CC(=O)O)C2)C(=O)N[C@]1(C)c1ccc(CCC(C)(C)C)c(Cl)c1 (single isomer, unassigned) [Example 107] | 5.41 | 5.70 | – | – | –
11 | CC(C)C1=CN([C@H]2C[C@H](C(=O)O)C2)C(=O)NC1(C)c1ccc(OCC(C)(C)C)c(Cl)c1 (mixture of isomers) [Example 17] | 6.69 | 6.82 | – | – | –
12 | CC(C)C1=CN(CCC(=O)O)C(=O)N[C@@]1(C)c1ccc(CC2CC(F)(F)C2)c(Cl)c1 [Example 282] | – | – | 6.42 | 6.73 | –
13 | CC(C)C1=CN(C23CCC(C(=O)O)(C2)C3)C(=O)N[C@@]1(C)c1ccc(CCC(C)(C)C)c(C(F)(F)F)c1 [Example 314] | – | – | 7.42 | 7.49 | –
14 | CCC(C)C1=CN(CCCC(=O)O)C(=O)NC1(C)c1ccc(CCC(C)(C)C)c(Cl)c1 (single isomer, unassigned) [Example 33] | 6.36 | 6.21 | – | – | –
15 | COCCC1=CN(c2ccc(C(=O)O)cc2)C(=O)N[C@@]1(C)c1ccc(CCC(C)(C)C)c(Cl)c1 [Example 210] | – | – | 8.22 | 8.15 | –
16 | COCCC1=CN(c2ccc(C(=O)O)cc2)C(=O)N[C@@]1(C)c1ccc(C2=CCC(C)(C)CC2)c(Cl)c1 [Example 332] | – | – | 7.92 | 7.89 | –

Row | SMILES | pEC50 (human RORγ; [1]) | pEC50 (mouse RORγ; [3]) | pEC50 (human RORγ; [4]) | pEC50 (mouse RORγ; [5]) | further results
17 | CC(C)C1=CN(CCC(=O)O)C(=O)N[C@]1(C)c1ccc(CCC2(C)CC2)c(Cl)c1 [Example 131] | < 5.10 | < 5.10 | – | – | hRORγ luciferase activity, %-of-control (human RORγ; [2]): (77%); mRORγ luciferase activity, %-of-control (mouse RORγ; [2]): (81%)
18 | CC(C)CC1=CN(CCC(=O)O)C(=O)N[C@@]1(C)c1ccc(CCC(C)(C)C)c(Cl)c1 [Example 137] | 7.82 | 7.96 | – | – | –
19 | CC(C)C1=CN(CCc2ccccc2C(=O)O)C(=O)N[C@]1(C)c1ccc(CCC(C)(C)C)c(Cl)c1 [Example 82] | 6.01 | 6.10 | – | – | –
20 | CC(C)C1=CN([C@H]2CC[C@H](C(=O)O)CC2)C(=O)NC1(C)c1ccc(CCC(C)(C)C)c(Cl)c1 (mixture of isomers) [Example 29] | 7.44 | 7.31 | – | – | –
21 | CC(C)C1=CN([C@@H](C)CC(=O)O)C(=O)N[C@@]1(C)c1ccc(CCC(C)(C)C)c(Cl)c1 [Example 247] | – | – | 7.74 | 7.80 | –
22 | CC(C)C1=CN(CCC(C)C(=O)O)C(=O)NC1(C)c1ccc(OCC(C)(C)C)c(Cl)c1 (single isomer, unassigned) [Example 19] | 5.64 | 5.92 | – | – | –
23 | CC(C)C1=CN(CCC(=O)O)C(=O)N[C@@]1(C)c1ccc(C=C2CCC(C)(C)CC2)c(Cl)c1 [Example 285] | – | – | 5.87 | 7.52 | –
24 | CC(C)C1=CN([C@H]2C[C@H](C(=O)O)C2)C(=O)N[C@@]1(C)c1ccc(CCC(C)(C)C)c(Cl)c1 [Example 42] | 7.51 | 7.55 | – | – | –
25 | CC(C)C1=CN([C@H]2CC[C@@H](C(=O)O)CC2)C(=O)N[C@]1(C)c1ccc(CCC(C)(C)C)c(Cl)c1 [Example 66] | 5.44 | 5.57 | – | – | –
26 | CC(C)CCOc1ccc([C@]2(C)NC(=O)N(C34CC(C(=O)O)(C3)C4)C=C2C2CC(F)(F)C2)cc1Cl [Example 349] | – | – | 7.20 | 7.35 | –
27 | CC(C)C1=CN(CCC(=O)O)C(=O)N[C@]1(C)c1ccc(C2CCCCC2)c(Cl)c1 [Example 135] | < 5.10 | < 5.10 | – | – | hRORγ luciferase activity, %-of-control (human RORγ; [2]): (90%); mRORγ luciferase activity, %-of-control (mouse RORγ; [2]): (84%)
28 | CC(C)(C)CCc1ccc(C2(C)NC(=O)N([C@H]3C[C@H](CO)C3)C=C2C(C)(C)CCC(=O)O)cc1Cl (single isomer, unassigned) [Example 182] | 7.57 | 7.12 | – | – | –
29 | CC(=O)N1CC(C(=O)O)C(N2C=C(C(C)C)[C@](C)(c3ccc(CCC(C)(C)C)c(Cl)c3)NC2=O)C1 (single isomer, unassigned) [Example 239] | – | – | 5.34 | 5.51 | –
30 | CC(C)C1=CN(CCC(=O)O)C(=O)N[C@@]1(C)c1ccc(CCC(C)(C)F)c(Cl)c1 [Example 294] | – | – | 7.17 | 7.47 | –
31 | CC(C)C1=CN(CCCC(=O)O)C(=O)NC1(C)c1ccc(OCCC(F)(F)F)cc1 (racemic) [Example 105] | 5.55 | 5.77 | – | – | –
32 | CC(C)CCS(=O)(=O)c1ccc([C@]2(C)NC(=O)N(CCC(=O)O)C=C2C(C)C)cc1Cl [Example 216] | – | – | < 4.70 | < 4.70 | hRORγ luciferase activity, %-of-control (human RORγ; [6]): (86%); mRORγ luciferase activity, %-of-control (mouse RORγ; [6]): (76%)

Reference: US10196363B2, “Dihydropyrimidin-2-one compounds and medical use thereof” (JAPAN TOBACCO INC., priority 2014, dated 2019)
